Reference: patent US8933037B2, “Methods involving PDGFRBETA inhibitors” (Medizinische Universitat Wien, priority 2009, dated 2015)
Entries after “also recorded” stand apart in the source; their conditions may differ.

Assays:
Karpas-299 lymphomas = settings: cited from earlier work
CD30 = settings: cited from earlier work
417 cells = test: Alamar Blue assay (apoptosis), 417 cells; assay type: cell-based, mouse
Description: (§1) Apoptosis rates were measured by Alamar Blue assays. The active ingredient of Alamar Blue is resazurin, a non-fluorescent dark blue indicator dye. It is able to permeate cells and is converted to resorufin, a fluorescent, bright red dye, in a reduction reaction by living (metabolically active) cells. The produced fluorescence is proportional to the number of metabolically active cells.
(§2) We incubated SR-786 and 417 cells treated with 0-20 μM imatinib with Alamar Blue for one hour at 37 degrees Celsius.

SR-786 cells = test: Alamar Blue assay (apoptosis), SR-786 cells; assay type: cell-based, human
Description: as §1, §2

[1] = tested on: human ALK positive ALCL cell lines; settings: cited from earlier work
NPM-ALK = target: T1, NPM-ALK (Homo sapiens, UniProt Q9UM73); settings: cited from earlier work
T1 construct: the other entry of the earlier key: NPM1 (P06748, Nucleophosmin)

[2] = tested on: murine NPM-ALK and PDGFRB positive cell line 417; test: Cell number after three days culture with inhibitor, cell line 417; settings: different concentrations, three days in RPMI medium
[3] = tested on: murine NPM-ALK positive cell line CD4-417 tumors; test: Murine xenograft model, CD4-417 cells in flank of SCID mice
[4] = tested on: human NPM-ALK positive and PDGFRB negative cell line SR-786; test: Cell number after three days culture with inhibitor, cell line SR-786; settings: different concentrations, three days in RPMI medium
HD and ALCL = settings: cited from earlier work
human ACLC/HD-cell lines = settings: cited from earlier work

T1 sequence (Q9UM73 with tags, fused parts or gaps): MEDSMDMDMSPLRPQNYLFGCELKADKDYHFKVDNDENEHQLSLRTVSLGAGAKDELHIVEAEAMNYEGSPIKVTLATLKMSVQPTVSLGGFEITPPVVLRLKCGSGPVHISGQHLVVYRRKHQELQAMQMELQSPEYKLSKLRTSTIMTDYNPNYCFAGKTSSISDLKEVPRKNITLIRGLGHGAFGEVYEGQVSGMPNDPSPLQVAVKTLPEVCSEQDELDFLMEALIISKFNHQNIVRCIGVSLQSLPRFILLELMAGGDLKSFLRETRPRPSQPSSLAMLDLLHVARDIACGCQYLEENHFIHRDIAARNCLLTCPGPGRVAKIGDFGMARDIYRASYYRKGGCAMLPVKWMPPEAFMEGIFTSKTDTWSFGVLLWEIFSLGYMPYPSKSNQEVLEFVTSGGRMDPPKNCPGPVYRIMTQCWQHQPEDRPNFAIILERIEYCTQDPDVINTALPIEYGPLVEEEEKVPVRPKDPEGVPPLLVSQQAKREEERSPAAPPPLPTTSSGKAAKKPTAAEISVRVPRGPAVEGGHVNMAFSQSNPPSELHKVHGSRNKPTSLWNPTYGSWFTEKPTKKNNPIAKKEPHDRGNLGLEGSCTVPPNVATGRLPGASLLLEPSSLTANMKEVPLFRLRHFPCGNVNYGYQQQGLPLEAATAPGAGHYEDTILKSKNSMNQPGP

**Q.** Which “established Karpas-299 lymphomas in vivo” value (Karpas-299 lymphomas) does the source give for `COc1cc(N2CCC(N3CCN(C)CC3)CC2)ccc1Nc1ncc(Cl)c(Nc2ccccc2S(=O)(=O)C(C)C)n1` [NVP-TAE684] here?
**A.** induced regression

**Q.** What about the “lymphomagenesis in two independent models of ALK-positive ALCL” value (Karpas-299 lymphomas; in vivo) of the same molecule?
**A.** suppress lymphomagenesis

**Q.** And the CD30 expression (CD30)?
**A.** induced down-regulation

**Q.** For `Cc1ccc(NC(=O)c2ccc(CN3CCN(C)CC3)cc2)cc1Nc1nccc(-c2cccnc2)n1` [imatinib, 4-[(4-methylpiperazin-1-yl)methyl]-N-[4-methyl-3-[(4-pyridin-3-ylpyrimidin-2-yl)amino]phenyl]benzamide], which “conversion of resazurin to resorufin, 417 cells at 0-10 μM” value (417 cells; 0-10 μM, Alamar Blue one hour at 37 degrees Celsius) is on record?
**A.** responded similar to SR-786 cells

**Q.** And the “conversion of resazurin to resorufin (color change), 417 cells at 20 μM” value (417 cells; 20 μM, Alamar Blue one hour at 37 degrees Celsius)?
**A.** not able to induce the color change

**Q.** And the “apoptosis by Alamar Blue, 417 cells at 20 μM” value (417 cells; 20 μM, three days after treatment)?
**A.** strongly increased; also recorded: high apoptosis

**Q.** What about the “apoptosis by Alamar Blue, 417 cells, dose dependence” value (417 cells; in vitro, 0-20 μM) of the same molecule?
**A.** increased apoptosis rates; also recorded: dose dependent apoptosis

**Q.** And the “conversion of resazurin to resorufin, SR-786 cells” value (SR-786 cells; 0-20 μM, Alamar Blue one hour at 37 degrees Celsius)?
**A.** comparable rate, regardless of imatinib concentrations

**Q.** And the “apoptosis by Alamar Blue, SR-786 cells” value (SR-786 cells; up to 20 μM, three days)?
**A.** unaffected

**Q.** And the “effect on ALCL cell lines” value [1]?
**A.** unable to show effects

**Q.** What about the “binding to ALK” value (NPM-ALK) of the same molecule?
**A.** unable to bind ALK

**Q.** And the “sensitivity of NPM-ALK to imatinib treatment” value (NPM-ALK)?
**A.** insensitive

**Q.** What about the “cell number (antiproliferative effect), cell line 417” value [2] of the same molecule?
**A.** increasingly impaired; also recorded: strongly react; also recorded: reduced cell numbers; also recorded: dose dependent reduction in cell number

**Q.** What does the source list for `Cc1cn(-c2cc(NC(=O)c3ccc(C)c(Nc4nccc(-c5cccnc5)n4)c3)cc(C(F)(F)F)c2)cn1` [nilotinib, 4-methyl-N-[3-(4-methyl-1H-imidazol-1-yl)-5-(trifluoromethyl)phenyl]-3-[(4-pyridin-3-ylpyrimidin-2-yl)amino]benzamide]?
**A.** tumor weight vs untreated control tumors ([3]; after 6 days of treatment): drastically reduced; tumor size reduction ([3]; nilotinib treatment, xenografted mice): more than 59%; cell number (antiproliferative effect), cell line 417 [2]: strongly react; also recorded: dose dependent reduction in cell number; cell number / proliferation rates, cell line SR-786 [4]: remain unaffected

**Q.** What does the source list for `CNC(=O)c1cc(Oc2ccc(NC(=O)Nc3ccc(Cl)c(C(F)(F)F)c3)cc2)ccn1` [sorafenib, 4-[4-[[4-chloro-3-(trifluoromethyl)phenyl]carbamoylamino]phenoxy]-N-methyl-pyridine-2-carboxamide]?
**A.** in vivo treatment of HD and ALCL (HD and ALCL): not effective; apoptosis in human ACLC/HD-cell lines (human ACLC/HD-cell lines): able to induce apoptosis
